Test system: 292921-168-R-J2-PDC complex spheroid growth
Experiment: Anticancer human tumor 292921-168-R-J2-PDC patient-derived pancreatic carcinoma cell line growth inhibition [AhR]
Details: for IC50: curve of first compound; for viability, T/C: stronger effect = lower value
Excerpt: Multicellular complex tumor spheroid response to aryl hydrocarbon receptor antagonists in combination with a variety of drugs and investigational agents in selected tumor cell lines
The current study was undertaken to assess response to aryl hydrocarbon receptor antagonists in combination with standard-of-care drugs and investigational agents in solid tumor complex spheroid models. Complex spheroids include a stromal component modeled by human endothelial cells (HUVEC) and fibroblasts modeled by human mesenchymal stem cells (MSCs). The concentration ranges selected for each drug and investigational agent were based upon clinically achievable concentrations if the clinical Cmax of the agent was known.
Compounds. The drugs and investigational agents: BAY 2416964 (NSC825713), GNF351 (NSC835774), CH-223191 (NSC835775), CPI-455 (NSC825282), aza-TdCyd (NSC777586), decitabine (NSC127716), belinostat (NSC758774), entinostat (NSC756642), pevonedistat (NSC761192), tazemetostat (NSC777109), talazoparib (NSC765396), olaparib (NSC753686), selinexor (NSC780203), nedisertib (M3814, NSC802822), bortezomib (NSC756655), venetoclax (NSC766270), doxorubicin (NSC123127), elimusertib (BAY189344, NSC800525), ceralasertib (AZD6738, NSC777638), TAK-243 (NSC785004), alisertib (NSC759677), etoposide (NSC141540), topotecan (NSC609699), eribulin (NSC707389), gemcitabine (NSC613327), carboplatin (NSC241240), cisplatin (NSC119875), and SN-38 (NSC673596) were obtained from the National Cancer Institute (NCI) Developmental Therapeutics Program Chemical Repository (32). The FDA-approved anticancer drug set is available from the Developmental Therapeutics Program at https://dtp.cancer.gov/organization/dscb/obtaining/available plates.htm. […] The stock solutions were prepared in dimethyl sulfoxide (DMSO, Sigma-Aldrich, St. Louis, MO, cat. D2650), except for the platinum compounds which were prepared in saline (Quality Biological, Gaithersburg, MD, cat. 114-055-101), at 800-fold the tested concentration and stored at -70 degrees C prior to their use. All drugs and investigational agents were tested over a range starting from a high concentration at or near the clinical Cmax and decreasing in half-log increments. If the clinical Cmax for an agent had not been determined, the highest concentration tested was 10 microM (Table 1).
Cell Culture. All cells were maintained in an incubator at 37 degrees C and 5% CO2 with 95% humidity. The PDC lines were cultured according to standard operating procedures established by the NCI PDMR (https://pdmr.cancer.gov). Briefly, all PDCs were thawed and cultured in Matrigel-coated flasks prepared with a working solution of 1X Ham's F-12 nutrient mix, without supplementation (Invitrogen, Waltham, MA, cat. 11765054), 100 U/mL penicillin-streptomycin (Invitrogen, cat. 15140122), and 2.5% Matrigel (Corning Inc., Corning, NY, cat. 354248) for the first three passages. All PDCs were cultured in complete DMEM/F-12 media containing advanced DMEM/F-12 (Invitrogen, cat. 12634028), 4.9% defined fetal bovine serum, heat inactivated (HyClone Laboratories Inc., Logan, UT, cat. SH30070.03HI), 389 ng/mL hydrocortisone (Sigma-Aldrich, cat. H4001), 9.7 ng/mL human EGF recombinant protein (Invitrogen, cat. PHG0313), 23.4 microg/mL adenine (Sigma-Aldrich, cat. A2786), 97.3 U/mL penicillin-streptomycin (Invitrogen, cat. 15140122), 1.9 mM L-glutamine (Invitrogen, cat. 25030081), and 9.7 microM Y-27632 dihydrochloride (Tocris Bioscience, Bristol, United Kingdom, cat. 1254). The PDCs were cultured in complete DMEM/F12 media without 10 microM Y-27632 dihydrochloride for at least two passages prior to the screen. The established cell lines NCI-H1341 and […] were cultured in DMEM/F-12, HEPES (Invitrogen, cat. 11330032), 5% defined fetal bovine serum (HyClone Laboratories Inc., cat. SH30070.03), ITS premix universal culture supplement [insulin (5 microg/mL), transferrin (5 microg/mL), and selenious acid (5 ng/mL)] […]

[1] = second compound 0.1 µM, first compound 0.00316 µM
[2] = second compound 0.1 µM, first compound 0.01 µM
[3] = second compound 0.1 µM, first compound 0.0316 µM
[4] = second compound 0.1 µM, first compound 0.1 µM
[5] = second compound 0.316 µM, first compound 0.00316 µM
[6] = second compound 0.316 µM, first compound 0.01 µM
[7] = second compound 0.316 µM, first compound 0.0316 µM
[8] = second compound 0.316 µM, first compound 0.1 µM
[9] = second compound 1 µM, first compound 0.00316 µM
[10] = second compound 1 µM, first compound 0.01 µM
[11] = second compound 1 µM, first compound 0.0316 µM
[12] = second compound 1 µM, first compound 0.1 µM
[13] = second compound 3.16 µM, first compound 0.00316 µM
[14] = second compound 3.16 µM, first compound 0.01 µM
[15] = second compound 3.16 µM, first compound 0.0316 µM
[16] = second compound 3.16 µM, first compound 0.1 µM
[17] = second compound 10 µM, first compound 0.00316 µM
[18] = second compound 10 µM, first compound 0.01 µM
[19] = second compound 10 µM, first compound 0.0316 µM
[20] = second compound 10 µM, first compound 0.1 µM
[21] = second compound 0.1 µM, first compound 0.316 µM
[22] = second compound 0.1 µM, first compound 1 µM
[23] = second compound 0.316 µM, first compound 0.316 µM
[24] = second compound 0.316 µM, first compound 1 µM
[25] = second compound 1 µM, first compound 0.316 µM
[26] = second compound 1 µM, first compound 1 µM
[27] = second compound 3.16 µM, first compound 0.316 µM
[28] = second compound 3.16 µM, first compound 1 µM
[29] = second compound 10 µM, first compound 0.316 µM
[30] = second compound 10 µM, first compound 1 µM
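Further: spheroids exposed to compounds for seven days after three days of growth.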

Compound	IC50 (second compound 0.1 µM) [nM]	IC50 (second compound 0.316 µM) [nM]	IC50 (second compound 1 µM) [nM]	IC50 (second compound 3.16 µM) [nM]	IC50 (second compound 10 µM) [nM]	viability, T/C [1] [%]	viability, T/C [2] [%]	viability, T/C [3] [%]	viability, T/C [4] [%]	viability, T/C [5] [%]	viability, T/C [6] [%]	viability, T/C [7] [%]	viability, T/C [8] [%]	viability, T/C [9] [%]	viability, T/C [11] [%]	viability, T/C [12] [%]	viability, T/C [15] [%]	viability, T/C [16] [%]	viability, T/C [19] [%]	viability, T/C [20] [%]	also measured
CC[C@@]1(O)C(=O)OCc2c1cc1n(c2=O)Cc2cc3c(CN(C)C)c(O)ccc3nc2-1 + CC(CO)NC(=O)c1cc(-c2ccc(Cl)cc2)nn(-c2cnn(C)c2)c1=O	29.2	28.1	30.7	25.5	18.4	100	78.6	48.6	21.8	106	75.2	49.3	24	99.5	50.4	23.3	45.1	23.6	40	22	viability, T/C (second compound 0.1 µM, first compound 0.000316 µM): 101%; viability, T/C (second compound 0.1 µM, first compound 0.001 µM): 99.9%; viability, T/C (second compound 0.316 µM, first compound 0.000316 µM): 104%; viability, T/C (second compound 0.316 µM, first compound 0.001 µM): 103%; viability, T/C (second compound 1 µM, first compound 0.000316 µM): 101%; viability, T/C (second compound 1 µM, first compound 0.001 µM): 98.2%; viability, T/C [10]: 77.4%; viability, T/C (second compound 3.16 µM, first compound 0.000316 µM): 91.4%; viability, T/C (second compound 3.16 µM, first compound 0.001 µM): 81.6%; viability, T/C [13]: 90.6%; viability, T/C [14]: 72.5%; viability, T/C (second compound 10 µM, first compound 0.000316 µM): 68%; viability, T/C (second compound 10 µM, first compound 0.001 µM): 67.7%; viability, T/C [17]: 63.1%; viability, T/C [18]: 62%
COc1cc(C2c3cc4c(cc3C(OC3OC5COC(C)OC5C(O)C3O)C3COC(=O)C23)OCO4)cc(OC)c1O (stereo not given) + CC(CO)NC(=O)c1cc(-c2ccc(Cl)cc2)nn(-c2cnn(C)c2)c1=O	645	563	542	421	163			95.7	92.4			89.3	85.5		98.8	90.9	85.1	75	60.9	60	viability, T/C [21]: 67.9%; viability, T/C [22]: 38%; viability, T/C (second compound 0.1 µM, first compound 3.16 µM): 22.6%; viability, T/C (second compound 0.1 µM, first compound 10 µM): 13.7%; viability, T/C [23]: 65%; viability, T/C [24]: 33.6%; viability, T/C (second compound 0.316 µM, first compound 3.16 µM): 24.4%; viability, T/C (second compound 0.316 µM, first compound 10 µM): 13.7%; viability, T/C [25]: 61.7%; viability, T/C [26]: 34.4%; viability, T/C (second compound 1 µM, first compound 3.16 µM): 24.6%; viability, T/C (second compound 1 µM, first compound 10 µM): 13.7%; viability, T/C [27]: 56.3%; viability, T/C [28]: 31.3%; viability, T/C (second compound 3.16 µM, first compound 3.16 µM): 22.4%; viability, T/C (second compound 3.16 µM, first compound 10 µM): 11.8%; viability, T/C [29]: 38.8%; viability, T/C [30]: 27.4%; viability, T/C (second compound 10 µM, first compound 3.16 µM): 19.6%; viability, T/C (second compound 10 µM, first compound 10 µM): 11.4%
Nc1ncn(C2CC(O)C(CO)O2)c(=O)n1 (stereo not given) + CC(CO)NC(=O)c1cc(-c2ccc(Cl)cc2)nn(-c2cnn(C)c2)c1=O	> 1000	> 1000	> 1000	> 1000	> 1000	102	93.3	87.1	88.8	101	96.3	105	90.8	97.5	103	94.5	92.4	76.5	71	73	viability, T/C [21]: 80.9%; viability, T/C [22]: 73.7%; viability, T/C [23]: 85.8%; viability, T/C [24]: 77.8%; viability, T/C [10]: 104%; viability, T/C [25]: 86.2%; viability, T/C [26]: 78.8%; viability, T/C [13]: 94.7%; viability, T/C [14]: 91%; viability, T/C [27]: 81.4%; viability, T/C [28]: 69.5%; viability, T/C [17]: 70.3%; viability, T/C [18]: 72.8%; viability, T/C [29]: 63%; viability, T/C [30]: 62.5%

From PubChem BioAssay AID1918994 (Molecular Pharmacology Branch, DTP, NCI, 2023)
